Test results from patent publication US20180064829A1, “FLUORESCENT BISPHOSPHONATE ANALOGS” (University of Southern California, priority 2015, published 2018).

Key:
[1] = UV-VIS absorption and fluorescence emission spectra; type: physicochemical; settings: 0.1M phosphate buffer (1x PBS for 7d5); ± 1 nm error
Experimental: All labeled samples were dissolved in water and diluted with 0.1 M phosphate buffer or 1×PBS (for 7d5). Assuming that the labeled bisphosphonates have the same extinction coefficient (E) as the carboxylic acid of the free fluorescent label, the final concentrations for all labeled products were calculated from UV-VIS absorption spectra at λ=493 nm (ε=73000 M^−1 cm^−1 at pH 7.2) for FAM conjugates (7a1-7a3, 7b1, 7c1, 7d1-7d2, 7e1-7e2, 7f1-7f2), λ=567.5 nm (ε=114850 M^−1cm^−1 at pH 7.5) for RhR-X conjugates (7a4, 7b2, 7c2), λ=580 nm (c=72000 M^−1cm^−1 at pH 8.0) for ROX conjugates (7a5, 7b3), λ=648 nm (ε=240000 M^−1cm^−1 at pH 7.2) for AF647 conjugates (7a6, 7b4, 7d3), λ=774 nm (ε=240000 M^−1cm^−1 at pH 7.4) for 800CW conjugates (7d4), λ=644 nm (ε=271000 M^−1cm^−1 at pH 7.4, 1×PBS) for Sulfo-Cy5 conjugates (7d5).
Emission spectra for FAM and RhR-X conjugates were recorded using an excitation wavelength of 490 nm or 520 nm, respectively. Emission spectra for AF647 conjugates and Sulfo-Cy5 conjugates were recorded using an excitation wavelength of 600 nm. Emission spectra of 5(6)-ROX conjugates were recorded using an excitation wavelength of 575 nm. Emission spectra of IRDye CW800 conjugate was recorded using an excitation wavelength of 750 nm. The set-up of excitation slit, emission slit, integration time and increment were determined to get optimal spectra for each compound respectively, depending on the sample concentration and spectrometer used.

[2] = pH 7.2, 0.1M phosphate buffer; assumed the same as the corresponding fluorescent dye; cited from earlier work
[3] = test system: unprenylated Rap1A (uRap1A); test: Prenylation assay: Western blot for unprenylated Rap1A in J774.2 macrophages; type: cell-based, mouse; settings: 10 or 100 μM, 24 h, FIG. 5A-C
Experimental: To determine the effect of fluorescent BP probes on protein prenylation, J774.2 mouse macrophages were plated out at 2×10^5 cells/mL in 24-well plates and left to adhere overnight. Cells were then treated with 10 or 100 μM of fluorescent analogues of RIS, dRIS, and ZOL, the respective native BP, or vehicle, for 24 h. Cells were lysed in radioimmunoprecipitation buffer, and proteins were separated by sodium dodecyl sulfate polyacrylamide gel electrophoresis and transferred to polyvinyl difluoride membranes by western blotting. Membranes were then incubated with antibodies to the unprenylated form of Rap1A (uRap1A) and the housekeeping protein β-actin, which were detected by incubation with fluorescently-labeled secondary antibodies and scanning of membranes on a LI-COR Infrared Imager. Results shown are representative of 2 independent experiments. The ratio between abundance of unprenylated RaplA and β-actin is indicated for each sample below the blots in FIG. 5.

[4] = Hydroxyapatite (HAP) column chromatography binding assay; settings: pH 6.8, phosphate gradient 1 to 1000 mM; FIG. 3
Experimental: The fast performance liquid chromatography (FPLC) system consisted of a Waters 650E advanced protein purification system (Millipore Corp., Waters chromatography division, Milford, Mass.), a 600E system controller and a 484 tunable absorbance detector for UV absorbance assessment. Ceramic hydroxyapatite [HAP, […], Macro-Prep® Ceramic Hydroxyapatite Type II 20 μm 100 g, Bio-Rad Laboratories, Inc. Hercules, Calif.] was equilibrated with 1 mM phosphate buffer (pH 6.8) and packed in a 0.66 cm (diameter)×6.5 cm (length) glass column (Omnifit, Bio-chem Valve™ inc., Cambridge, U.K.), which was attached to the Waters 650E advanced protein purification system. Each sample was prepared in 1 mM potassium phosphate buffer, and 100 μL of 1 mM (0.1 μmol) sample was injected into the FPLC system. As a consequence, the compounds were absorbed and subsequently eluted at a flow rate of 2 ml/min by using a linear concentration gradient of phosphate from 1 to 1000 mM at pH 6.8. Fractions of each sample were collected in 80 tubes using an automated fraction collector (Gilson, France) and then used for subsequent ultraviolet (SPECTRAmax PLUS 384, Molecular Devices, CA) or fluorescence spectrometry detection (WALLAC VICTOR™, 1420 MULTILABEL COUNTER, Perkin Elmer, USA). […] The elution profile for each sample was determined in triplicate for statistical analysis (Prism, GraphPad Software, USA). […]

[5] = pKa and protonation status of the heterocyclic nitrogen; type: physicochemical; settings: pH 6.0; calculated by Henderson-Hasselbalch equation
Source text: The nucleophilicity and Lewis basicity of the nitrogen atom of the three heterocyclic N-BPs studied in this report vary, and these properties appear to be the major determinants of their conjugation reactivity. Thus, the ‘magic linker’ methodology for RIS required modification for ZOL (1d), MIN (1e), and their related analogues (1f). […] The protonation status of the heteroatom at different pH is also critical to the reactivity. […] Under such conditions, more than 50% (˜71.3% calculated) of the nitrogen of RIS will be deprotonated, and able to attack the epoxide ring nucleophilically. However, at pH 6.0, only 18% of the nitrogen of ZOL (22% for MIN) is deprotonated, thus the reactions were very slow (2d) at pH 6.0. At pH 7.0-7.5, reaction was more rapid, but the regioselectivity (N-alkylation vs. O-alkylation) for 1d, 1e, 1f was not as good as for RIS and its analogues (1a, 1b, 1c); 10-20% of side products could be observed, which were confirmed by HPLC, NMR and MS to be the products of N,O(P)-dialkylation (O-alkylation occurs between the phosphonate/carboxylate group of the drug and the epoxide). The reaction rate of MinPC (1f)-epoxide (5) coupling was even slower than ZOL under the same reaction conditions (same reactant ratio, pH 7.5, 40-45° C.), which might be due to a steric effect from the large heterocycle. In addition, the percent of side products was higher and O-alkylation products were also observed in the reaction mixture.
The following publications are incorporated by reference herein in their entirety: • [1] a) R. G. G. Russell, N. B. Watts, F. H. Ebetino, M. J. Rogers, Osteoporos. Int. 2008, 19, 733-759; b) F. Ebetino, A. Hogan, S. Sun, M. Tsoumpra, X. Duan, J. Triffitt, A. Kwaasi, J. Dunford, B. Barnett, U. Oppermann, M. Lundy, A. Boyde, B. Kashemirov, C. McKenna, R. Russell, Bone 2011, 49 20-33. • [2] a) I. Reid, M. Bolland, A. Grey, Bone 2007, 41, 318-320; b) A. Siddiqi, A. Payne, S. Zafar, Oral Surg. Oral Med. Oral Pathol. Oral Radiol. Endod. […]

[6] = test system: unprenylated Rap1A (uRap1A); settings: PC analogues versus N-BPs; cited from earlier work
[7] = parent compounds, ref. [23]; cited from earlier work

Structure (SMILES): O=C(NCC(O)C[n+]1ccn(CC(O)(P(=O)(O)O)P(=O)(O)O)c1)c1ccc(C(=O)O)c(-c2c3ccc(=O)cc-3oc3cc(O)ccc23)c1 (centres unmarked) [Compound 6-FAM-ZOL, 3-(3-(4-carboxy-3-(6-hydroxy-3-oxo-3H-xanthen-9-yl)benzamido)-2-hydroxypropyl)-1-(2-hydroxy-2,2-diphosphonoethyl)-1H-imidazol-3-ium]
- Maximum absorption wavelength (λmax (abs), nm) [1]: 493 nm
- Maximum emission wavelength (λmax (em), nm) [1]: 516 nm
- Extinction coefficient [2]: 73,000 (pH 7.2) M^−1cm^−1
- accumulation of unprenylated Rap1A (anti-prenylation activity) [3]: retain some activity, although their potencies are weaker than native ZOL
- HAP binding affinity (retention time on HAP column, normalized to RIS) [4]: slightly longer retention time on the HAP column than its 5-isomer

Structure (SMILES): O=P(O)(O)C(O)(Cc1cnc2ccccn12)P(=O)(O)O [MIN, (1-Hydroxy-2-imidazo[1,2-a]pyridin-3-yl-1-phosphonoethyl)phosphonic acid]
- fraction of the heterocyclic nitrogen deprotonated [5]: 22%

Structure (SMILES): O=C(O)C(O)(Cc1cnc2ccccn12)P(=O)(O)O (centres unmarked) [MINPC, 2-hydroxy-3-imidazo[1,2-a]pyridin-3-yl-2-phosphonopropionic acid]
- activity in uRap1A and J774.2 cell viability screening assays [6]: much less active than the N-BPs

Structure (SMILES): O=C(O)C(O)(Cc1cccnc1)P(=O)(O)O (centres unmarked) [RISPC, 2-hydroxy-2-phosphono-3-pyridin-3-ylpropanoic acid]
- rank order of mineral binding affinity [7]: RIS>dRIS>RISPC
- activity in uRap1A and J774.2 cell viability screening assays [6]: much less active than the N-BPs

Structure (SMILES): O=P(O)(O)C(O)(Cn1ccnc1)P(=O)(O)O [ZOL, [1-hydroxy-2-(1H-imidazol-1-yl)ethane-1,1-diyl]bis(phosphonic acid)]
- fraction of the heterocyclic nitrogen deprotonated [5]: 18%

Structure (SMILES): O=P(O)(O)C(Cc1cccnc1)P(=O)(O)O [dRIS, (2-pyridin-3-ylethane-1,1-diyl)bis(phosphonic acid)]
- rank order of mineral binding affinity [7]: RIS>dRIS>RISPC
